Tests used:
lung granulomas = experiment: Histology and morphometric measurement of lung granulomas in Mtb-infected mice; assay type: in vivo; conditions: 28 days postinfection (14 days of treatment), histology
Description: Formalin-fixed lung tissues of Mtb-infected mice were paraffin-embedded, cut into […] sections, and stained with hematoxylin and eosin (H&E) or acid fast staining by Ziehl–Neelsen (ZN) method to visualize host cells and Mtb, respectively (IDEXX-RADIL Laboratories Inc., MO, USA) as described in Ref. ([11]). Stained sections were photographed in a Nikon Microphot-FX photomicrographic system and analyzed with NIS-Elements F3.0 software (Nikon Instruments Inc., NY, USA). Lung granuloma size was morphometrically measured using PathScan Enabler IV scanner (Meyer Instruments, Houston, TX, USA) and SigmaScan Pro software (Systat Software, Inc., CA, USA). Histopathologic analysis and morphometry were performed by an experienced pathologist blinded to the sample identity.

Pde4 = experiment: qPCR of host Pde4 gene expression in Mtb-infected mouse lungs; assay type: in vivo, mice; conditions: 14 days of treatment (28 days postinfection)
Description: Total lung RNA (200 ng) was reverse-transcribed using Sprint RT kit (Clontech, CA, USA); 10 ng of cDNA were used for quantitative real-time PCR (qPCR), with Brilliant II SYBR master mix (Agilent Technologies, CA, USA) and gene-specific primers in a Stratagene Mx3005P instrument (Agilent Technologies, CA, USA). ROX was included in each reaction as an internal control. The qPCR assay was performed using four mouse samples in duplicate per group; the data were analyzed using MxPro Software (Agilent Technologies, CA, USA). Transcript levels of Gapdh were used as a reference against the test genes. Fold change in gene expression was calculated using the formula 2^−ΔΔCt, where ΔCt is the difference in threshold cycle (Ct) between the target gene and Gapdh; and ΔΔCt is the […] between untreated and CC-11050-treated samples. Primers were designed based on nucleotide sequences obtained from PrimerBank.^3

SMILES: CCOc1cc([C@@H](CS(C)(=O)=O)N2Cc3cccc(NC(=O)C4CC4)c3C2=O)ccc1OC [CC-11050, N-[2-[(1S)-1-(3-ethoxy-4-methoxyphenyl)-2-(methylsulfonyl)ethyl]-2,3-dihydro-3-oxo-1H-isoindol-4-yl]-(9Cl) cyclopropanecarboxamide]
- Impact on size and structure of lung lesions (lung granulomas): no significant impact
- Pde4A expression in lungs versus Mtb-infected untreated (Pde4): No significant change
- Pde4C expression in lungs versus Mtb-infected untreated (Pde4): No significant change
- Pde4D expression in lungs versus Mtb-infected untreated (Pde4; 50 mg/kg, P = 0.0037): significantly reduced
- Pde4Bi3 (Pde4B isoform 3) expression in lungs versus Mtb-infected untreated (Pde4; 50 mg/kg, P = 0.015): significantly reduced

Reference: PMC4911353, “Pharmacologic Inhibition of Host Phosphodiesterase-4 Improves Isoniazid-Mediated Clearance of Mycobacterium tuberculosis” (Frontiers in Immunology, 2016)
